Columns and labels:
LDL receptor expression = assay: Northern blotting of LDL receptor mRNA in HepG2 cells; format: cell-based, human
Procedure: 5×10^5 cells were plated on day 0. On day 2, cells were refed with fresh medium. On day. 4, cells were either left untreated (0) or treated for the indicated times with SB202190 (2.5 μM) in medium containing 0.5% FBS. Total RNA was isolated and subjected to Northern blotting to determine amounts of LDL receptor, squalene synthase (SS) genes, and actin mRNAs. Autoradiographs were quantitated densitometrically. LDL receptor mRNA levels were normalized to actin mRNA levels. In the bottom panel, results are expressed as the fold induction by SB 202190 as compared with uninduced cells (set at 1). Values obtained are the averages of three separate experiments, with the standard deviations shown.
HepG2 cells were grown as described in FIG. 1. On day 4, medium was changed to either 10% LPDS alone or 10% LPDS supplemented with 25-hydroxycholesterol (2 μg/ml) and cholesterol (10 μg/ml), and after 2 hours, cells were treated with indicated concentrations of SB202190 for an additional 4 hours. Levels of LDL receptor and SS mRNAs were determined by Northern analysis and densitometry as described previously. RNA levels were normalized by comparison with levels of actin. Values obtained from cells cultured in the absence of sterols and SB202190 were set at 1. Values shown are the average of two different experiments.
Total RNA was subjected to Northern blot analysis, and the filter was hybridized with a ^32P-labeled LDL receptor probe. Values shown are the averages of two different experiments. […] Values obtained from the control cells grown in the absence of SB202190 or PD98059 were arbitrarily set at 1.
HepG2 cells were grown as described in FIG. 1. On day 4, cells cultured for 1 h in 0.5% FBS containing different amounts of cycloheximide (1 μg/ml, 2 μg/ml, and 5 μg/ml) were then incubated with SB202190 (2.5 μM) for an additional 4 h. LDL receptor and actin mRNA levels were analyzed by Northern blotting of total RNA. Values obtained from cells with no additions were arbitrarily set at 1. […] Results shown are representative of one experiment.
In FIG. 8A, HepG2 cells were pretreated for 30 minutes with the indicated concentration of the above inhibitors and then treated with […] SB202190 for an additional 4 hours. Total RNA was subjected to Northern blotting for measurement of LDL receptor mRNA levels.
Human hepatoma cell line HepG2 and its derivative HepG2-ΔRaf-1:ER cell line that stably expresses the ΔRaf-1:ER chimera were maintained as monolayer cultures in a humidified 5% CO2 atmosphere at 37° C. in Eagle's minimum essential medium (EMEM) (Bio Whittaker, Md.) supplemented with 10% fetal bovine serum (FBS) (Life Technologies Inc.), 2 mM L-glutamine, 20 units/ml penicillin and 20 μg/ml streptomycin sulphate.
Total RNA was isolated using TRIzol, and Northern blotting was done essentially as described earlier (43, 44). Briefly, 20 μg total cellular RNA was fractionated on 1% formaldehyde agarose gel and transferred to Zeta Probe membrane by capillary blotting. RNA blots were hybridized with LDL receptor and squalene synthase specific single-stranded M13 probes labeled with [α-^32P ]dCTP. Hybridized filters were washed and exposed to Kodak X-ray film. The relative intensities of specific bands were determined densitometrically within the linear range of the film on a model 300A laser densitometer (Molecular Dyanamics, Calif.) with Image Quant software. LDL receptor mRNA was normalized to squalene synthase (SS) (included in this study) or to α-actin (data not shown) mRNA level, and data for each point were plotted as the percentage of LDL receptor mRNA as compared to controls. […]

[1] = tested on: p38^MAPK γ- and δ-isoforms; settings: cited from earlier work
p46/54^JNK = settings: even at higher concentrations (100 μM); cited from earlier work

## Oc1ccc(-c2nc(-c3ccc(F)cc3)c(-c3ccncc3)[nH]2)cc1 [SB202190, 4-(4-Fluorophenyl)-2-(4-hydroxyphenyl)-5-(4-pyridyl) 1H-imidazole]
LDL receptor expression; HepG2, 10% LPDS with 25-hydroxycholesterol (2 μg/ml) and cholesterol (10 μg/ml), SB202190 4 hours
  LDL receptor expression in the presence of sterols: slight increase in the suppressed levels of LDL receptor
LDL receptor expression; HepG2 cells
  most effective concentration for LDL receptor induction: 2.5 µM
LDL receptor expression; HepG2 cells, SB202190 2.5 μM
  time after which plateau of LDL receptor expression was reached: 8 h
  time at which a significant increase in LDL receptor expression was apparent: 4 h
LDL receptor expression; HepG2 cells, SB202190 alone
  induction of LDL receptor expression: 6-8 fold
LDL receptor expression; HepG2 cells, inhibitor alone, 0.5% FBS
  induction of LDL receptor expression (Northern blotting): induces LDL receptor expression in a time-dependent manner
[1]
  inhibition of p38MAPK γ- and δ-isoforms: insensitive
[1]; even at higher concentrations (100 μM)
  effect on homologues p38MAPK γ (SAPK3) and SAPK4: without effect
p46/54^JNK
  effect on p46/54JNK: without effect

Source: patent US6602896B1, “p38MAPK inhibitor and uses thereof” (The Board of Trustees of the University of Arkansas, priority 1999, dated 2003)
